{"source": "ChEMBL document CHEMBL1143511", "about": "“Antitubercular agents. Part 1: synthesis of phthalimido- and naphthalimido-linked phenazines as new prototype antitubercular agents” (2005)", "type_in_all_cases": "functional", "key": {"[1]": {"test_system": "Mycobacterium tuberculosis", "assay": "Minimum inhibitory concentration tested against Mycobacterium tuberculosis sensitive clinical isolates"}, "[2]": {"test_system": "Mycobacterium tuberculosis", "assay": "Minimum inhibitory concentration tested against Mycobacterium tuberculosis H37Rv ATCC 27294"}, "[3]": {"test_system": "Mycobacterium intracellulare", "assay": "Minimum inhibitory concentration tested against Mycobacterium intracellular ATCC 13950"}, "Mycobacterium avium": {"test_system": "Mycobacterium avium", "assay": "Minimum inhibitory concentration tested against Mycobacterium avium ATCC 49601"}, "[4]": {"test_system": "Mycobacterium tuberculosis", "assay": "Minimum inhibitory concentration tested against Mycobacterium tuberculosis sensitive clinical isolates; Range 8-16 ug/mL"}, "[5]": {"test_system": "Mycobacterium tuberculosis", "assay": "Minimum inhibitory concentration tested against Mycobacterium tuberculosis sensitive clinical isolates; Range:1-2 ug/ml"}, "[6]": {"test_system": "Mycobacterium tuberculosis", "assay": "Minimum inhibitory concentration tested against Mycobacterium tuberculosis sensitive clinical isolates; Range:1-4 ug/ml"}, "[7]": {"test_system": "Mycobacterium tuberculosis", "assay": "Minimum inhibitory concentration tested against Mycobacterium tuberculosis sensitive clinical isolates; Range 0.125-0.25 ug/ml"}}}
{"smiles": "O=C1c2ccccc2C(=O)N1CCCCN1CCN(CC/N=c2/cc3n(-c4ccc(Cl)cc4)c4ccccc4nc-3cc2Nc2ccc(Cl)cc2)CC1", "values": [{"measurement": "MIC", "setting": "[1]", "result": "> 16", "unit": "µg/mL"}, {"measurement": "MIC", "setting": "[2]", "result": "> 16", "unit": "µg/mL"}, {"measurement": "MIC", "setting": "[3]", "result": "> 16", "unit": "µg/mL"}, {"measurement": "MIC", "setting": "Mycobacterium avium", "result": "> 16", "unit": "µg/mL"}]}
{"smiles": "O=C1c2cccc3cccc(c23)C(=O)N1CCCCN1CCN(CC/N=c2/cc3n(-c4ccc(Cl)cc4)c4ccccc4nc-3cc2Nc2ccc(Cl)cc2)CC1", "values": [{"measurement": "MIC", "setting": "[1]", "result": "> 16", "unit": "µg/mL"}, {"measurement": "MIC", "setting": "[2]", "result": "> 16", "unit": "µg/mL"}, {"measurement": "MIC", "setting": "[3]", "result": "> 16", "unit": "µg/mL"}, {"measurement": "MIC", "setting": "Mycobacterium avium", "result": "> 16", "unit": "µg/mL"}]}
{"smiles": "O=C1c2cccc3cccc(c23)C(=O)N1CCCCCCN1CCN(CC/N=c2/cc3n(-c4ccc(Cl)cc4)c4ccccc4nc-3cc2Nc2ccc(Cl)cc2)CC1", "values": [{"measurement": "MIC", "setting": "[2]", "result": 16, "unit": "µg/mL"}, {"measurement": "MIC", "setting": "[4]", "result": 16, "unit": "µg/mL"}, {"measurement": "MIC", "setting": "[3]", "result": "> 16", "unit": "µg/mL"}, {"measurement": "MIC", "setting": "Mycobacterium avium", "result": "> 16", "unit": "µg/mL"}]}
{"smiles": "O=C1c2ccccc2C(=O)N1CCCCCCN1CCN(CC/N=c2/cc3n(-c4ccc(Cl)cc4)c4ccccc4nc-3cc2Nc2ccc(Cl)cc2)CC1", "values": [{"measurement": "MIC", "setting": "[2]", "result": 1, "unit": "µg/mL"}, {"measurement": "MIC", "setting": "[5]", "result": 2, "unit": "µg/mL"}, {"measurement": "MIC", "setting": "[3]", "result": 8, "unit": "µg/mL"}, {"measurement": "MIC", "setting": "Mycobacterium avium", "result": 16, "unit": "µg/mL"}]}
{"smiles": "O=C1c2ccccc2C(=O)N1CCCN1CCN(CC/N=c2/cc3n(-c4ccc(Cl)cc4)c4ccccc4nc-3cc2Nc2ccc(Cl)cc2)CC1", "values": [{"measurement": "MIC", "setting": "[1]", "result": "> 16", "unit": "µg/mL"}, {"measurement": "MIC", "setting": "[2]", "result": "> 16", "unit": "µg/mL"}, {"measurement": "MIC", "setting": "[3]", "result": "> 16", "unit": "µg/mL"}, {"measurement": "MIC", "setting": "Mycobacterium avium", "result": "> 16", "unit": "µg/mL"}]}
{"smiles": "O=C1c2cccc3cccc(c23)C(=O)N1CCCCCN1CCN(CC/N=c2/cc3n(-c4ccc(Cl)cc4)c4ccccc4nc-3cc2Nc2ccc(Cl)cc2)CC1", "values": [{"measurement": "MIC", "setting": "[1]", "result": "> 16", "unit": "µg/mL"}, {"measurement": "MIC", "setting": "[2]", "result": "> 16", "unit": "µg/mL"}, {"measurement": "MIC", "setting": "[3]", "result": "> 16", "unit": "µg/mL"}, {"measurement": "MIC", "setting": "Mycobacterium avium", "result": "> 16", "unit": "µg/mL"}]}
{"smiles": "O=C1c2cccc3cccc(c23)C(=O)N1CCCN1CCN(CC/N=c2/cc3n(-c4ccc(Cl)cc4)c4ccccc4nc-3cc2Nc2ccc(Cl)cc2)CC1", "values": [{"measurement": "MIC", "setting": "[1]", "result": "> 16", "unit": "µg/mL"}, {"measurement": "MIC", "setting": "[2]", "result": "> 16", "unit": "µg/mL"}, {"measurement": "MIC", "setting": "[3]", "result": "> 16", "unit": "µg/mL"}, {"measurement": "MIC", "setting": "Mycobacterium avium", "result": "> 16", "unit": "µg/mL"}]}
{"smiles": "O=C1c2ccccc2C(=O)N1CCCCCN1CCN(CC/N=c2/cc3n(-c4ccc(Cl)cc4)c4ccccc4nc-3cc2Nc2ccc(Cl)cc2)CC1", "values": [{"measurement": "MIC", "setting": "[6]", "result": 4, "unit": "µg/mL"}, {"measurement": "MIC", "setting": "[2]", "result": 1, "unit": "µg/mL"}, {"measurement": "MIC", "setting": "[3]", "result": 8, "unit": "µg/mL"}, {"measurement": "MIC", "setting": "Mycobacterium avium", "result": 16, "unit": "µg/mL"}]}
{"smiles": "NNC(=O)c1ccncc1", "note": "[ISONIAZID]", "values": [{"measurement": "MIC", "setting": "[7]", "result": 0.25, "unit": "µg/mL"}, {"measurement": "MIC", "setting": "[2]", "result": 0.25, "unit": "µg/mL"}, {"measurement": "MIC", "setting": "[3]", "result": 8, "unit": "µg/mL"}, {"measurement": "MIC", "setting": "Mycobacterium avium", "result": "> 16", "unit": "µg/mL"}]}
